Assay results: patent publication US20140161786A1, “Therapeutic compositions and related methods” (priority 2012, published 2014)
Where a SMILES comes first, the peptide text is derived from it.

Columns and labels:
EAE mice = experiment: EAE mouse model, reduction of paralytic symptoms; format: in vivo
[1] = Amyloid fibril formation by thioflavin T (ThT) fluorescence; format: physicochemical; conditions: for pH dependent amyloid fibril formation (ThT staining): buffers pH 3 to pH 10, 37° C., fluorescence at 485 nm; for amyloid fibril formation (ThT staining), L- versus D-amino acids: 100 mM MES pH 7.4, 37° C.
Method: The relative amount of amyloid present in each solution was measured by combining solutions of the hexamers (200 mg 50 ml) dissolved in 100 mM MES pH 7.4 and 50 ml of a 1M buffer solution at the appropriate pH (glycine, pH 3; acetate, pH 4; citrate, pH 5; MES, pH 6; Tris, pH 7; Tris, pH 8; glycine, pH 9; bicarbonate, pH 10) and incubated at 37° C. ThT (10 ml of 10 mM solution) was added and the resultant emission fluorescence at 485 nm for each sample after excitation at 440 nm was measured using a SpectraMax 190 fluorescent microtiter plate reader.
The ability of each hexamer listed in Table 1 to form amyloid fibrils in aqueous buffers was examined. Each of the hexamers (200 mg 50 ml) was added to 100 ml of 100 mM MES pH 7.4 and combined with 50 ml of a 1M buffer solution at the appropriate pH (glycine, pH 3; acetate, pH 4; citrate, pH 5; MES, pH 6; Tris, pH 7; Tris, pH 8; glycine, pH 9; bicarbonate, pH 10) and incubated at 37° C. ThT (10 ml of 10 mM solution) was added and the resultant fluorescence at 485 nm from excitation at 440 nm was measured using a fluorescent plate reader. The peptides can be segregated into sets A-E: an anionic set forming fibrils at pH 3, pH 4, and pH 5 (A), a cationic group forming fibrils only at pH 10 (B), three cationic sequences that form amyloid fibrils at all pHs measured (C), a nonionizable set of sequences weakly binding ThT at all pHs (D), and a hydrophobic set of sequences that bind ThT at all pHs tested (E). Only a fraction of the peptides formed amyloid fibrils when dissolved in PBS pH 7.4, as measured by staining with thioflavin T (ThT). Their differential propensity to form amyloid fibrils was used to help segregate them into functional sets (Table 1).
With respect the experimental results depicted in FIG. 6: A) L- and D-tau 623-628 and L- and D-Aβ 37-42 (200 μg/50 μl) were each added to 100 μl of 100 mM MES pH 7.4 and incubated at 37° C. ThT (10 μl of 10 μM solution) was added and the resultant fluorescence at 485 nm from excitation at 440 nm was measured using a fluorescent plate reader. The levels of ThT were similar in both sets of hexapeptides. […] D) Groups of ten mice were injected daily intraperitoneally for 10 days with 1 μg of L-tau or D-tau hexapeptides beginning at onset of hindlimb weakness. PBS was injected in littermates as control. Bar represents the duration of the treatment. Values in graph represent mean+/−S.E.M. *p<0.05 for L-tau and ̂p<0.05 for D-tau by Mann-Whitney U test.

beta chain of insulin = biological target: T1, beta chain of insulin (Homo sapiens, UniProt P01308); experiment: Inhibition of DTT induced aggregation of the beta chain of insulin (molecular chaperone function); format: biochemical; conditions: for molecular chaperone function (inhibition of insulin aggregation): pH 4 and pH 7.4; for inhibition of insulin aggregation: pH 7.4 and pH 5; for inhibition of insulin aggregation, L- versus D-amino acids: FIG. 6b/6c
T1 construct: DTT induced aggregation of the beta chain of insulin
Method: The capacity of the proteins and peptides to inhibit DTT induced aggregation of the beta chain of insulin was assayed using procedures described previously by several authors. See, for example, Hong, D. P. & Fink, A. L. Independent heterologous fibrillation of insulin and its B-chain peptide. Biochemistry 44, 16701-16709, doi:10.1021/bi051658y (2005). Also see, Hong, D. P., Ahmad, A. & Fink, A. L. Fibrillation of human insulin A and B chains. Biochemistry 45, 9342-9353, doi:10.1021/bi0604936 (2006). The aggregation was measured by the increase in absorption at 360 nm as a function of time over twenty minutes.
To determine whether the ThT staining observed in Experiment 4 (above) correlated with molecular chaperone function, each of the peptides was assayed for its ability to inhibit insulin aggregation. The effect of ThT on insulin aggregation was measured as a control. […] […] See, Nielsen, L. et al. Effect of environmental factors on the kinetics of insulin fibril formation: elucidation of the molecular mechanism. Biochemistry 40, 6036-6046, doi:bi002555c [pii] (2001).

[2] = system: plasma cytokine levels (IL-6, IL-2, TGF-β, IL-17); experiment: Plasma cytokine levels in EAE mice (multiplex-bead-analysis of 26 cytokines); format: in vivo; conditions: 1 μg of Tau 623-628 or 10 μg of HspB1 daily for two days, bled 12 hours later
Method: EAE was induced by procedures previously described. See, Steinman, L. & Zamvil, S. S. How to successfully apply animal studies in experimental allergic encephalomyelitis to research on multiple sclerosis. Ann Neurol 60, 12-21, doi:10.1002/ana.20913 (2006). […] Sera from EAE mice were collected following two days of treatment with 10 μg HspB1 protein, 1 μg tau 623-628 (VQIVYK)(SEQ ID NO: 123), or PBS. Twenty-six cytokines were analyzed by multiplex-bead-analysis.
To determine whether a hexamer modulated the plasma cytokine levels equivalent to an intact small heat shock protein, groups of five mice were treated after the onset of hindlimb weakness with daily injections of either 1 μg of Tau 623-628 or 10 μg of HspB1 for two days and bled 12 hours later.

[3] = mice, 1 μg peptide injected daily from onset of hindlimb weakness, PBS control

T1 sequence (P01308 25-54 limits assumed): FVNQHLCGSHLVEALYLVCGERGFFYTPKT

Question: For `CC(=O)N[C@@H](CO)C(=O)N[C@@H](CC(N)=O)C(=O)N[C@@H](CCC(N)=O)C(=O)N[C@@H](CC(N)=O)C(=O)N[C@@H](CC(N)=O)C(=O)N[C@@H](Cc1ccccc1)C(N)=O` [prion 148-153, SNQNNF] (Ac-SNQNNF-NH2), which “reduction of the paralytic symptoms of EAE” value (from here on “reduction”) (EAE mice; mouse, in vivo) is on record?
Answer: therapeutic

Question: Which results are given for NKGAII [A beta A4 27-32]?
Answer: pH dependent amyloid fibril formation (ThT staining) [1]: bound ThT only at pH 10; reduction of the paralytic symptoms of EAE (EAE mice; [3]): therapeutic

Question: For “insulin B chain 11-16: hexamer of insulin B chain residues 11-16, acidic residue, sequence only in Table 1 image”, which “pH dependent amyloid fibril formation (ThT staining)” value [1] is on record?
Answer: effectively formed amyloid fibrils only in a range of pH 3 to pH 5

Question: And the “reduction” value (EAE mice; [3])?
Answer: did not statistically significantly reduce the symptoms of EAE

Question: What about the “molecular chaperone function (inhibition of insulin aggregation)” value (beta chain of insulin) of the same molecule?
Answer: molecular chaperones at pH 4, but not at pH 7.4

Question: Which “pH dependent amyloid fibril formation (ThT staining)” value [1] does the source give for GYVIIK [serum amyloid P 213-218] here?
Answer: formed amyloid fibrils in buffers from pH 3-10

Question: What about the “reduction” value (EAE mice; [3]) of the same molecule?
Answer: therapeutic

Question: What does the source list for “SVNDLV [HspB5 76-81, hexamer of HspB5 residues 76-81]”?
Answer: pH dependent amyloid fibril formation (ThT staining) [1]: effectively formed amyloid fibrils only in a range of pH 3 to pH 5; reduction of the paralytic symptoms of EAE (EAE mice; [3]): effectively reduced the paralytic symptoms of EAE; molecular chaperone function (inhibition of insulin aggregation) (beta chain of insulin): molecular chaperone only at pH4 and not in more basic solutions; inhibition of insulin aggregation (beta chain of insulin): only effective at pH 5

Question: Which “amyloid fibril formation (ThT staining), L- versus D-amino acids” value [1] does the source give for “MVGGVV (Ac-MVGGVV-NH2) [A beta A4 35-40, Ac MVGGVV CONH2 in b76]” here?
Answer: equivalent, within error

Question: And the “reduction” value (EAE mice; mice, 1 μg peptide daily, administered in 50% DMSO)?
Answer: therapeutic

Question: What does the source list for “LKVKVL [HspB5 89-94, hexamer of HspB5 residues 89-94]”?
Answer: pH dependent amyloid fibril formation (ThT staining) [1]: bound ThT only at pH 10; reduction of the paralytic symptoms of EAE (EAE mice; [3]): effectively reduced the paralytic symptoms of EAE

Question: What does the source list for VQIVYK [Tau 623-628]?
Answer: amyloid fibril formation (ThT staining), L- versus D-amino acids [1]: equivalent, within error; amyloid fibril formation (ThT staining), L- versus D-amino acids ([1]; listed as L-tau 623-628): similar; pH dependent amyloid fibril formation (ThT staining) [1]: formed amyloid fibrils in buffers from pH 3-10; IL-2 level in serum [2]: smaller reductions; IL-6 level in serum [2]: dramatic reduction; IL-17 level in serum [2]: smaller reductions; TGF-β level in serum [2]: smaller reductions; reduction of the paralytic symptoms of EAE (EAE mice; [3]): effectively reduced the paralytic symptoms of EAE; inhibition of insulin aggregation, L- versus D-amino acids (beta chain of insulin): inhibited insulin aggregation with very similar IC50 values; inhibition of insulin aggregation, L- versus D-amino acids (beta chain of insulin; listed as L-tau): inhibit insulin aggregation in a dose dependent manner with similar IC50 concentrations; molecular chaperone function (inhibition of insulin aggregation) (beta chain of insulin): inhibited insulin aggregation at pH 4 and pH 7.4; inhibition of insulin aggregation (beta chain of insulin): potent inhibitor at both pH 7.4 and pH 5; IC50, inhibition of insulin aggregation (beta chain of insulin; titration, Panel C of FIG. 4): approximately 20 mg

Question: Which “reduction” value (EAE mice; [3]) does the source give for SSTNVG [amylin 28-33] here?
Answer: therapeutic

Question: Which results are given for “insulin A chain 12-17: hexamer of insulin A chain residues 12-17, acidic residue, sequence only in Table 1 image”?
Answer: pH dependent amyloid fibril formation (ThT staining) [1]: effectively formed amyloid fibrils only in a range of pH 3 to pH 5; molecular chaperone function (inhibition of insulin aggregation) (beta chain of insulin): molecular chaperones at pH 4, but not at pH 7.4

Question: Which results are given for Ac VQIVYK CONH2 [D-tau 623-628]?
Answer: amyloid fibril formation (ThT staining), L- versus D-amino acids [1]: similar; inhibition of insulin aggregation, L- versus D-amino acids (beta chain of insulin): inhibit insulin aggregation in a dose dependent manner with similar IC50 concentrations

Question: For HspB1: intact small heat shock protein, which “IL-2 level in serum” value [2] is on record?
Answer: smaller reductions

Question: And the “IL-6 level in serum” value [2]?
Answer: dramatic reduction

Question: And the “IL-17 level in serum” value [2]?
Answer: smaller reductions

Question: And the “TGF-β level in serum” value [2]?
Answer: smaller reductions

Question: Which “effect on the rate of insulin aggregation (control)” value (beta chain of insulin; 10 mM ThT) does the source give for `Cc1ccc2c(c1)sc(-c1ccc(N(C)C)cc1)[n+]2C.[Cl-]` [ThT, thioflavin T, reference compound] here?
Answer: Neither the addition of 10 mM ThT nor ThT bound to Tau 623-628 affected the rate of insulin aggregation

Question: Which “pH dependent amyloid fibril formation (ThT staining)” value [1] does the source give for “amyloid beta A4 16-21: lysine-containing hexamer of amyloid beta A4 residues 16-21 (KLVFFA; Amyloid-beta protein 42; UniProt P05067 687-692, looked up, fragment)” here?
Answer: formed amyloid fibrils in buffers from pH 3-10

Question: Which “amyloid fibril formation (ThT staining), L- versus D-amino acids” value [1] does the source give for “L-Aβ 37-42: L-amino acid hexapeptide of FIG. 6A; b76 calls it A beta 35-40 (Ac MVGGVV CONH2) (Ac-MVGGVV-NH2; UniProt P05067 706-711, looked up, fragment)” here?
Answer: similar
